Data: patent publication US8604217B2, “Compound, a process for its preparation, a pharmaceutical composition, use of a compound, a method for modulating or regulating serine/threonine kinases and a serine/threonine kinases modulating agent” (Selvita S.A., priority 2009, dated 2013)

What was measured:
[1] = tested on: human prostate adenocarcinoma PC3 cells; experiment: Growth inhibition test (MTS) on PC3 cells; assay type: cell-based; settings: Homo sapiens, PC-3, 72 hours, read-out: PC-3 ED50
[2] = tested on: human colorectal adenocarcinoma SW480 cells; experiment: Growth inhibition test (MTS) on SW480 cells; assay type: cell-based; settings: 72 hours, read-out: SW480 ED50
Protocol: (§1) Two thousand cells of human colorectal adenocarcinoma SW480 were inoculated into each well of a 96-well microplate (manufactured by Corning Corp.), and using DMEM/Ham's F121:1 medium (culture medium) containing 5% fetal calf serum (FCS). Next day, a dimethyl sulfoxide (DMSO) solution of each test compound prepared in a concentration of 10 mmol/L was further diluted with culture medium to the desired concentrations (0.1, 0.5, 1, 2.5, 5 and 10 micromol/L), and the diluted solution was added to each well. The individual wells were further cultured in 5% carbon dioxide at 37° C. for 72 hours. After completion of the culture, 10 μl MTS (3-(4,5-Dimethyl-2-thiazolyl)-5-(carboxymethoxyphenyl)-2-(4-sulfophenyl)-2H-tetrazolium, inner salt assay (CellTiter96® AQueous One Solution Cell Proliferation Assay, Promega) was added to each well, and culturing was performed in 5% carbon dioxide at 37° C. for 2 hours. Using a microplate spectrophotometer (Synergy 2 multi-mode microplate reader (BioTek)), the absorbance of each well was measured at 490 nm. The value for cells not incorporated with a test compound was designated as 100%. By comparing these values with the absorbance difference obtained at the well in which each test compound was added, the cell viability (% viability) after treatment with the test compound was calculated.

[3] = tested on: human breast adenocarcinoma MCF7 cells; experiment: Growth inhibition test (MTS) on MCF7 cells; assay type: cell-based; settings: 72 hours, read-out: MCF-7 ED50
Summary of the method: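 MCF7 cells seeded in DMEM with 10% FCS, dosed next day at 0.1–10 micromol/L (diluted from 10 mmol/L DMSO stock) and cultured 72 h at 37° C, 5% CO2. MTS added for 2 h, absorbance read at 490 nm; % viability calculated relative to untreated cells as 100%.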

[4] = tested on: human chronic myelocytic leukemia K562 cells; experiment: Growth inhibition test (MTS) on K562 cells; assay type: cell-based; settings: 72 hours, read-out: K562 ED50
Protocol: as §1, with “Ten thousand” for “Two thousand”, “human chronic myelocytic leukemia K562” for “human colorectal adenocarcinoma SW480”, “Corning Corp.)” for “Corning Corp.), and”, “using Iscove's MDM” for “using DMEM/Ham's F121:1”, “containing 10%” for “containing 5%”

[5] = tested on: human hepatoma HepG2 cells; experiment: Growth inhibition test (MTS) on HepG2 cells; assay type: cell-based; settings: 72 hours, read-out: HepG2 ED50
Summary of the method: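 HepG2 cells in DMEM with 10% FCS were exposed for 72 h at 37 °C, 5% CO2, to 0.1, 0.5, 1, 2.5, 5 and 10 micromol/L compound. MTS was then added for 2 h and absorbance read at 490 nm. % viability was calculated relative to untreated cells set at 100%.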

[6] = target: PIM-1 (Homo sapiens (Human), UniProt P11309); experiment: Luminometric kinase assay for PIM1 kinase (Kinase-Glo); assay type: biochemical; settings: 1 μM ATP, 25 min at RT
Summary of the method: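 Kinase and substrate reacted in 8 mM MOPS/NaOH pH7.0, 0.2 mM EDTA, 2 mM MgCl2 with 1 μM ATP for 25 min at RT, compounds serially diluted from 1 μM. Remaining ATP read by Kinase-Glo luminescence; IC50 from variable-slope sigmoidal fit.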

Chain of PIM-1 (P11309 whole entry): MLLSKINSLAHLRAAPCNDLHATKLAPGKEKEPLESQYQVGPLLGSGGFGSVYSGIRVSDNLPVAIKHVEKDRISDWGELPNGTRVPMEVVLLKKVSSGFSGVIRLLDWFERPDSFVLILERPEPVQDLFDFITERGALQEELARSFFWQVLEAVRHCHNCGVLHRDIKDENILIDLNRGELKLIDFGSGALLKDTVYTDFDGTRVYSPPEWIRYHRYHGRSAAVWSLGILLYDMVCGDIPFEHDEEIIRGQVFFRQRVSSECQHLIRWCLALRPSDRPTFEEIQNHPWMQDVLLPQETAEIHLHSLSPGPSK

Brc1c(Br)c(Br)c2[nH]c(NCCN3CCCCC3)nc2c1Br [Compound 13, 4,5,6,7-tetrabromo-N-(2-(piperidin-1-yl)ethyl)-1H-benzo[d]imidazol-2-amine]
IC50 [1]: 3.86 µM
IC50 [2]: 1.08 µM
IC50 [3]: 3.65 µM
IC50 [4]: 3.72 µM
IC50 [5]: 2.54 µM
IC50 [6]: 0.319 µM

Brc1c(Br)c(Br)c2[nH]c(NCCN3CCCC3)nc2c1Br [Compound 14, 4,5,6,7-tetrabromo-N-(2-(pyrrolidin-1-yl)ethyl)-1H-benzo[d]imidazol-2-amine]
IC50 [1]: 3.96 µM
IC50 [2]: 1.53 µM
IC50 [3]: 7.76 µM
IC50 [4]: 3.59 µM
IC50 [5]: 2.12 µM
IC50 [6]: 0.0578 µM
